Assay results as given in US9624241B2 (Incyte Corporation, priority 2013, dated 2017).
Where a name gives a salt, the structure may show the parent alone. Read-outs that look alike come from different tables or passages of the source.

Experiments:
[1] = biological target: BRD4-BD2 (Homo sapiens (Human), UniProt O60885); test: BRD4 AlphaScreen Assay (Example A2), BRD4-BD2; format: binding; details: read-out: BRD4 BD-2 enzyme IC50
Experimental: (§1) BRD4-BD1 and BRD4-BD2 assays were conducted in white 384-well polystyrene plate in a final volume of 40 μL for BD1 and 60 μL for BD2. Inhibitors were first serially diluted in DMSO and added to the plate wells before the addition of other reaction components. […] The assays were carried out at room temperature in the assay buffer (50 mM Tris-HCl, pH 7.5, 0.01% Tween-20, 0.01% BSA, 5 mM DTT), containing 50 nM Biotin-labeled tetra-acetylated histone H4 peptide (H4Ac4) and BRD4-BD1 or BRD4-BD2 protein at concentration less than 1 nM. […] After plate sealing, the plate was incubated in the dark at room temperature for 75 min. before reading on a PHERAstar FS plate reader (BMG Labtech). IC50 determination was performed by fitting the curve of percent control activity versus the log of the inhibitor concentration using the GraphPad Prism 5.0 software.

[2] = biological target: BRD4-BD1 (Homo sapiens (Human), UniProt O60885); test: BRD4 AlphaScreen Assay (Example A2), BRD4-BD1; format: binding; details: read-out: BRD4 BD-1 enzyme IC50
Experimental: as §1

[3] = Assay A2, AlphaScreen, BRD4-BD2
[4] = Assay A2, AlphaScreen, BRD4-BD1

| IC50 [1, 3] [nM] | IC50 [2, 4] [nM] | Compound | IC50 [1] [nM] | IC50 [2] [nM] |
| --- | --- | --- | --- | --- |
| 100 to 1000 | 100 to 1000 | CNC(=O)C1Oc2c(-c3c(C)noc3C)ccc3[nH]c(=O)n(c23)C1c1ccccn1 (centres unmarked) [Example 76, 7-(3,5-dimethylisoxazol-4-yl)-N-methyl-2-oxo-4-pyridin-2-yl-1,2,4,5-tetrahydroimidazo[1,5,4-de][1,4]benzoxazine-5-carboxamide 2,2,2-trifluoroacetate] |  |  |
| < 100 | < 100 | C=Cc1nc2ccc(-c3c(C)noc3C)c3c2n1[C@@H](c1ccccn1)CO3 [Example 88, (4S)-7-(3,5-Dimethylisoxazol-4-yl)-4-pyridin-2-yl-2-vinyl-4,5-dihydroimidazo[1,5,4-de][1,4]benzoxazine] |  |  |
| < 100 | < 100 | Cc1noc(C)c1-c1ccc2nc(C3=CCN(C(=O)OC(C)(C)C)CC3)n3c2c1OC[C@@H]3c1ccccn1 [Example 97, tert-Butyl 4-[(4S)-7-(3,5-dimethylisoxazol-4-yl)-4-pyridin-2-yl-4,5-dihydroimidazo[1,5,4-de][1,4]benzoxazin-2-yl]-3,6-dihydropyridine-1(2H)-carboxylate] |  |  |
| < 100 | 100 to 1000 | COc1ccc(CNCc2cc(-c3c(C)noc3C)c3c4c2[nH]c(=O)n4C(c2ccccn2)CO3)cc1 (centres unmarked) [Example 263, 7-(3,5-dimethylisoxazol-4-yl)-9-{[(4-methoxybenzyl)amino]methyl}-4-pyridin-2-yl-4,5-dihydroimidazo[1,5,4-de][1,4]benzoxazin-2(1H)-one] |  |  |
| < 100 | 100 to 1000 | Cc1noc(C)c1-c1cc(Cl)c2[nH]c(=O)n3c2c1OCC3c1ccccn1 (single isomer, unassigned) [Example 266A, 9-chloro-7-(3,5-dimethylisoxazol-4-yl)-4-pyridin-2-yl-4,5-dihydroimidazo[1,5,4-de][1,4]benzoxazin-2(1H)-one] |  |  |
| < 100 | < 100 | Cc1noc(C)c1-c1ccc2nc(C(C)O)n3c2c1OC[C@@H]3c1ccccn1 (stereo partly drawn) [Example 90, 1-[(4S)-7-(3,5-Dimethylisoxazol-4-yl)-4-pyridin-2-yl-4,5-dihydroimidazo[1,5,4-de][1,4]benzoxazin-2-yl]ethanol] |  |  |
| < 100 | < 100 | Cc1noc(C)c1-c1ccc2nc(C3CCCN(S(C)(=O)=O)C3)n3c2c1OC[C@@H]3c1ccccn1 (mixture of isomers) [Example 119, (4S)-7-(3,5-dimethylisoxazol-4-yl)-2-[1-(methylsulfonyl)piperidin-3-yl]-4-pyridin-2-yl-4,5-dihydroimidazo[1,5,4-de][1,4]benzoxazine (mixture of diastereomers)] |  |  |
| < 100 | < 100 | Cc1noc(C)c1-c1ccc2nc(C(=O)OC(C)(C)C)n3c2c1OC[C@@H]3c1ccccn1 [Example 93, tert-Butyl (4S)-7-(3,5-dimethylisoxazol-4-yl)-4-pyridin-2-yl-4,5-dihydroimidazo[1,5,4-de][1,4]benzoxazine-2-carboxylate] |  |  |
| < 100 | < 100 | Cc1noc(C)c1-c1cc(CNS(C)(=O)=O)c2[nH]c(=O)n3c2c1OC[C@@H]3c1ccccn1 [Example 141, N-{[(4S)-7-(3,5-Dimethylisoxazol-4-yl)-2-oxo-4-pyridin-2-yl-1,2,4,5-tetrahydroimidazo[1,5,4-de][1,4]benzoxazin-9-yl]methyl}methanesulfonamide] |  |  |
| < 100 | < 100 | Cc1noc(C)c1-c1ccc2nc(C3CCN(C(=O)OC(C)(C)C)C3)n3c2c1OC[C@@H]3c1ccccn1 (single isomer, unassigned; diastereoisomer 2) [Example 101B] |  |  |
| < 100 | < 100 | Cc1noc(C)c1-c1ccc2nc(C3CCNC3)n3c2c1OC[C@@H]3c1ccccn1 (single isomer, unassigned; diastereomer 1) [Example 106A] |  |  |
| 100 to 1000 | 1000 to 10000 | Cc1n[nH]c(C)c1-c1cc(-c2c(C)noc2C)c2c3c1[nH]c(=O)n3C(c1ccccn1)CO2 (centres unmarked) [Example 258, 7-(3,5-dimethylisoxazol-4-yl)-9-(3,5-dimethyl-1H-pyrazol-4-yl)-4-pyridin-2-yl-4,5-dihydroimidazo[1,5,4-de][1,4]benzoxazin-2(1H)-one] |  |  |
| < 100 | 100 to 1000 | Cc1noc(C)c1-c1ccc2[nH]c(=O)n3c2c1OC(C(=O)NCCO)C3c1ccccc1 (single isomer, unassigned) [Example 48A, 7-(3,5-Dimethylisoxazol-4-yl)-N-(2-hydroxyethyl)-2-oxo-4-phenyl-1,2,4,5-tetrahydroimidazo[1,5,4-de][1,4]benzoxazine-5-carboxamide] |  |  |
| < 100 | 100 to 1000 | Cc1noc(C)c1-c1cc(-c2cncnc2)c2[nH]c(=O)n3c2c1OC[C@@H]3c1ccccn1 [Example 84, (4S)-7-(3,5-dimethylisoxazol-4-yl)-4-pyridin-2-yl-9-pyrimidin-5-yl-4,5-dihydroimidazo[1,5,4-de][1,4]benzoxazin-2(1H)-one 2,2,2-trifluoroacetate] |  |  |
| < 100 | < 100 | Cc1noc(C)c1-c1ccc2[nH]c(=O)n3c2c1OCC3c1cccnc1C(=O)NC1CC1 (single isomer, unassigned) [Example 134, N-Cyclopropyl-3-[7-(3,5-dimethylisoxazol-4-yl)-2-oxo-1,2,4,5-tetrahydroimidazo[1,5,4-de][1,4]benzoxazin-4-yl]pyridine-2-carboxamide] |  |  |
| < 100 | 100 to 1000 | Cc1noc(C)c1-c1ccc2c3c1CCC(c1ccccc1)n3c(=O)n2C (racemic) [Example 121, 7-(3,5-Dimethylisoxazol-4-yl)-1-methyl-4-phenyl-5,6-dihydro-4H-imidazo[4,5,1-ij]quinolin-2(1H)-one] |  |  |
| 100 to 1000 | 100 to 1000 | Cc1noc(C)c1-c1cc(CNC(C)C)c2[nH]c(=O)n3c2c1OCC3c1ccccn1 (centres unmarked) [Example 253, 7-(3,5-Dimethylisoxazol-4-yl)-9-[(isopropylamino)methyl]-4-pyridin-2-yl-4,5-dihydroimidazo[1,5,4-de][1,4]benzoxazin-2(1H)-one] |  |  |
| < 100 | 100 to 1000 | COn1c(=O)n2c3c(c(-c4c(C)noc4C)ccc31)CCC2c1ccccn1 (centres unmarked) [Example 122, 7-(3,5-Dimethylisoxazol-4-yl)-1-methoxy-4-pyridin-2-yl-5,6-dihydro-4H-imidazo[4,5,1-ij]quinolin-2(1H)-one trifluoroacetate] |  |  |
| < 100 | < 100 | Cc1noc(C)c1-c1ccc2nc(N3CC[C@@H](NC(=O)N4CCOCC4)C3)n3c2c1OC[C@@H]3c1ccccn1 [Example 153, N-{(3R)-1-[(4S)-7-(3,5-Dimethylisoxazol-4-yl)-4-pyridin-2-yl-4,5-dihydroimidazo[1,5,4-de][1,4]benzoxazin-2-yl]pyrrolidin-3-yl}morpholine-4-carboxamide] |  |  |
| < 100 | < 100 | Cc1noc(C)c1-c1ccc2nc(C3CCN(C(=O)C4CC4)C3)n3c2c1OC[C@@H]3c1ccccn1 (single isomer, unassigned; diastereomer 1) [Example 114A] |  |  |
| < 100 | 100 to 1000 | Cc1noc(C)c1-c1cc(C(C)O)c2[nH]c(=O)n3c2c1OC[C@@H]3c1ccccn1 (single isomer, unassigned) [Example 144B] |  |  |
| < 100 | < 100 | Cc1noc(C)c1-c1cc(Br)c2[nH]c(=O)n3c2c1OCC3c1ccccn1 (single isomer, unassigned) [Example 267B, 9-bromo-7-(3,5-dimethylisoxazol-4-yl)-4-pyridin-2-yl-4,5-dihydroimidazo[1,5,4-de][1,4]benzoxazin-2(1H)-one] |  |  |
| 100 to 1000 | 1000 to 10000 | Cc1cnn(C)c1-c1ccc2[nH]c(=O)n3c2c1OCC3c1ccccn1 (centres unmarked) [Example 44, 7-(1,4-Dimethyl-1H-pyrazol-5-yl)-4-pyridin-2-yl-4,5-dihydroimidazo[1,5,4-de][1,4]benzoxazin-2(1H)-one] |  |  |
| < 100 | < 100 | Cc1noc(C)c1-c1ccc2[nH]c(=O)n3c2c1CCC3c1ccccc1 (centres unmarked) [Example 120, 7-(3,5-Dimethylisoxazol-4-yl)-4-phenyl-5,6-dihydro-4H-imidazo[4,5,1-ij]quinolin-2(1H)-one] |  |  |
| < 100 | < 100 | Cc1noc(C)c1-c1cc(F)c2nc(N3CCC(O)C3)n3c2c1OCC3c1cccnc1 (centres unmarked) [Example 157, 1-[7-(3,5-Dimethylisoxazol-4-yl)-9-fluoro-4-pyridin-3-yl-4,5-dihydroimidazo[1,5,4-de][1,4]benzoxazin-2-yl]pyrrolidin-3-ol] |  |  |
| < 100 | < 100 | Cc1noc(C)c1-c1ccc2[nH]c(=O)n3c2c1OC(C)C3c1ccccn1 (centres unmarked) [Example 75, 7-(3,5-dimethylisoxazol-4-yl)-5-methyl-4-pyridin-2-yl-4,5-dihydroimidazo[1,5,4-de][1,4]benzoxazin-2(1H)-one] |  |  |
| 1000 to 10000 | 1000 to 10000 | Cc1noc(C)c1-c1cc(C#N)c2[nH]c(=O)n3c2c1OCC3c1ccccn1 (centres unmarked) [Example 269B, 7-(3,5-dimethylisoxazol-4-yl)-2-oxo-4-pyridin-2-yl-1,2,4,5-tetrahydroimidazo[1,5,4-de][1,4]benzoxazine-9-carbonitrile] |  |  |
|  |  | Cc1noc(C)c1-c1ccc2[nH]c(=O)n3c2c1OCC3c1cccnc1C(N)=O (centres unmarked) [Example 127, 3-[7-(3,5-Dimethylisoxazol-4-yl)-2-oxo-1,2,4,5-tetrahydroimidazo[1,5,4-de][1,4]benzoxazin-4-yl]pyridine-2-carboxamide trifluoroacetate] | < 100 | < 100 |
